Test system: not listed separately
Assay: Solubility of representative compounds (Table 1)
Format: physicochemical
Settings: solvents listed

Which Solubility does the source give for “N-((2S,3S)-1,3-dihydroxybutan-2-yl)-4-phenethylpiperidine-2-carboxamide [AB0125]” here?
Its Solubility is “EtOH, DMSO”.

For “N-(2-(dimethylamino)ethyl)-4-phenethylpiperidine-2-carboxamide [AB0124]”, which Solubility is on record?
The Solubility was “EtOH, DMSO”.

With “N-((1S,2S)-1,3-dihydroxy-1-(4-(methylthio)phenyl)propan-2-yl)-4-phenethylpiperidine-2-carboxamide [AB0135]” as the compound, how does the Solubility read?
Its Solubility is “EtOH, DMSO”.

For “N-(azetidin-3-yl)-4-phenethylpiperidine-2-carboxamide [AB0121]”, which Solubility is on record?
The Solubility was “EtOH, DMSO”.

With “N-((2R,3R)-1,3-dihydroxybutan-2-yl)-4-phenethylpiperidine-2-carboxamide [AB0126]” as the compound, how does the Solubility read?
Its Solubility is “EtOH, DMSO”.

With “N-(2-methoxyethyl)-4-phenethylpiperidine-2-carboxamide [AB0122]” as the compound, how does the Solubility read?
Its Solubility is “EtOH, DMSO”.

For “N-(3-morpholinopropyl)-4-phenethylpiperidine-2-carboxamide [AB0145]”, which Solubility is on record?
The Solubility was “EtOH, DMSO”.

For “N-(2-(1,1-dioxidothiomorpholino)ethyl)-4-phenethylpiperidine-2-carboxamide [AB0132]”, which Solubility is on record?
Its Solubility is “EtOH, DMSO”.

Which Solubility does the source give for “N,N-bis(2-hydroxyethyl)-4-phenethylpiperidine-2-carboxamide [AB0128]” here?
Its Solubility is “EtOH, DMSO”.

Which Solubility does the source give for “N-(2-hydroxyethyl)-N-methyl-4-phenethylpiperidine-2-carboxamide [AB0127]” here?
Its Solubility is “EtOH, DMSO”.

Which Solubility does the source give for “N-(2-hydroxyethyl)-4-phenethylpiperidine-2-carboxamide [AB0123]” here?
Its Solubility is “EtOH, DMSO”.

With “4-phenethyl-N-(2-(piperazin-1-yl)ethyl)piperidine-2-carboxamide [AB0131]” as the compound, how does the Solubility read?
The Solubility was “EtOH, DMSO”.

Which Solubility does the source give for “N-(2-(4-methylpiperazin-1-yl)ethyl)-4-phenethylpiperidine-2-carboxamide [AB0146]” here?
Its Solubility is “EtOH, DMSO”.

For “N-(2-(2-hydroxyethoxy)ethyl)-4-phenethylpiperidine-2-carboxamide [AB0136]”, which Solubility is on record?
Its Solubility is “EtOH, DMSO”.

Molecular target: T1, 5-HT2CR (Homo sapiens, UniProt P28335)
T1 construct: expressed in transfected cells
T1 sequence (P28335 33-458): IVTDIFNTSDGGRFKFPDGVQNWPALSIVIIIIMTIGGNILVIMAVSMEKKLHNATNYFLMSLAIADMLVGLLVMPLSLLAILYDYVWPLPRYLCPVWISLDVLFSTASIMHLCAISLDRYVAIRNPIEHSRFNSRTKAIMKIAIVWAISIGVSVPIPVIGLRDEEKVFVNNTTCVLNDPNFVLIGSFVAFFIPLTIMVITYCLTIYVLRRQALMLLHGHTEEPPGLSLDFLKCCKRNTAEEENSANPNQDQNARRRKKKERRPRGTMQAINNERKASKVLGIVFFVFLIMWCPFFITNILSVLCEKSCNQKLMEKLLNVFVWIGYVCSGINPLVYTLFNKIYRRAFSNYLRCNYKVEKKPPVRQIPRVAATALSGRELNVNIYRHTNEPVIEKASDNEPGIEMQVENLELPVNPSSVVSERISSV
Assay: 5-HT-evoked Cai2+ release in vitro
Format: cell-based
Settings: highest concentration tested in vitro (10 μM)
Text: General Method for In Vitro Pharmacological Assessment of Compounds of the Invention. The Chinese hamster ovary (CHO) cell lines stably transfected with human unedited (INI) h5-HT2CR (h5-HT2CR—CHO cells) or the human h5-HT2AR (h5-HT2AR—CHO cells) were a generous gift of K. Berg and W. Clarke (University of Texas Health Science Center, San Antonio, TX) (Berg et al., Molecular Pharmacology, 46:477-484, 1994; Ding et al., ACS Chemical Neuroscience, 3:538-545, 2012). […] Changes in Cai^2+ levels were determined using the calcium sensitive dye Calcium 4 or Calcium 6 (FLIPR No-wash kit, Molecular Devices, Sunnyvale, CA). […] The fluorescence readings were then adopted to evaluate the allosteric modulation of 5-HT-induced Cai^2+ release. FlexStation 3 or FLIPR^TETRA was used to measure fluorescence. For FlexStation 3, a 17 s baseline was established before the compound was added, and fluorescence was recorded every 1.7 s thereafter for 240 s. The maximum peak height of each well was determined by SoftMax software (Pro 5.4.5). For FLIPR^TETRA, a 10 s baseline was established before adding the compound, and then record the fluorescence every 1 s for 120 s after the compound or 360 s after 5-HT. The maximum peak height of each well was determined by ScreenWorks 4.0 software. After the final reading, the cells were fixed in 2% paraformaldehyde (Sigma) overnight. […]

For `CCCCCCCCCCC[C@@H]1CCN[C@H](C(=O)N[C@@H]([C@H]2O[C@H](SC)[C@H](O)[C@@H](O)[C@H]2O)[C@H](C)Cl)C1.Cl` [PNU-69176E], which agonist-like properties is on record?
The agonist-like properties was “agonist-like properties observed”.

Same assay, conditions: profile of a 5-HT2CR PAM

With `CCCCCCCCCCC[C@@H]1CCN[C@H](C(=O)N[C@@H]([C@H]2O[C@H](SC)[C@H](O)[C@@H](O)[C@H]2O)[C@H](C)Cl)C1.Cl` [PNU-69176E] as the compound, how does the “5-HT-evoked Cai2+ release” value read?
The value was “potentiated”.
